# Experimental data taken from patent US7317007B2, “Benzothiazole derivatives with activity as adenosine receptor ligands” (Hoffmann-La Roche Inc., priority 2000, dated 2008).
# Counter-ions that a name gives are not always drawn.
# How the values were obtained:
# [1] = biological target: T1, human adenosine A2A receptor (Homo sapiens, UniProt P29274); assay: [3H]-SCH-58261 binding assay at the human adenosine A2A receptor; settings: read-out: pKi value (converted)
# T1 construct: expressed in transfected cells; host or cells: CHO cells, Semliki Forest virus expression system; washed membrane pellet used
# Protocol: Human Adenosine A2A Receptor
# The human adenosine A2A receptor was recombinantly expressed in chinese hamster ovary (CHO) cells using the semliki forest virus expression system. Cells were harvested, washed twice by centrifugation, homogenised and again washed by centrifugation. The final washed membrane pellet was suspended in a Tris (50 mM) buffer containing 120 mM NaCl, 5 mM KCl, 2 mM CaCl2 and 10 mM MgCl2 (pH 7.4) (buffer A). The [^3H]-SCH-58261 (Dionisotti et al., 1997, Br J Pharmacol 121, 353; 1 nM) binding assay was carried out in 96-well plates in the presence of 2.5 μg of membrane protein, 0.5 mg of Ysi-poly-1-lysine SPA beads and 0.1 U adenosine deaminase in a final volume of 200 μl of buffer A. Non-specific binding was defined using xanthine amine congener (XAC; 2 μM). Compounds were tested at 10 concentrations from 10 μM-0.3 nM. All assays were conducted in duplicate and repeated at least two times. Assay plates were incubated for 1 hour at room temperature before centrifugation and then bound ligand determined using a Packard Topcount scintillation counter. IC50 values were calculated using a non-linear curve fitting program and Ki values calculated using the Cheng-Prussoff equation.
# T1 sequence (P29274 whole entry): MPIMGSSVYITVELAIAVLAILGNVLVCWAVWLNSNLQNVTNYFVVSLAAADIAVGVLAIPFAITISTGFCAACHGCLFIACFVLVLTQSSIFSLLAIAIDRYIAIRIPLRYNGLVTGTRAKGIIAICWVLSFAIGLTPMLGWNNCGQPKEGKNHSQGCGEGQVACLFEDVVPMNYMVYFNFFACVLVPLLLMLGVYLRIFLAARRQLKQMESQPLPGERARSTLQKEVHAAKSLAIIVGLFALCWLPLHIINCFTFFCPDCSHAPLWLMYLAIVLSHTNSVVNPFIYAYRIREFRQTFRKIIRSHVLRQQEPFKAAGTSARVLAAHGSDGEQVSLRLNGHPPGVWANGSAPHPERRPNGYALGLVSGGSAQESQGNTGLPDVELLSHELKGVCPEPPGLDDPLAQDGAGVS
Compound,melting point,Ki [1] [nM]
"COc1ccc(-c2ccc(C)s2)c2sc(NC(=O)c3ccc(CCl)cc3)nc12 [Example 234, 4-Chloromethyl-N-[4-methoxy-7-(5-methyl-thiophen-2-yl)-benzothiazol-2-yl]-benzamide]",130 to 146 °C,–
"COCCN(C)Cc1ccc(C(=O)Nc2nc3c(OC)ccc(-c4csc(N(C)C)n4)c3s2)cc1 [Example 239, N-[7-(2-Dimethylamino-thiazol-4-yl)-4-methoxy-benzothiazol-2-yl]-4-{[(2-methoxy-ethyl)-methyl-amino]-methyl}-benzamide]",85 to 95 °C,–
"COc1ccc(-c2ccc(C)s2)c2sc(NC(=O)c3ccc(F)cc3)nc12 [Example 225, 4-Fluoro-N-[4-methoxy-7-(5-methyl-thiophen-2-yl)-benzothiazol-2-yl]-benzamide]",192 to 196 °C (dec.),–
"COc1ccc(-c2csc(-c3ccccn3)n2)c2sc(NC(=O)c3ccc(F)cc3)nc12 [Example 222, 4-Fluoro-N-[4-methoxy-7-(2-pyridin-2-yl-thiazol-4-yl)-benzothiazol-2-yl]-benzamide]",150 °C (dec.),–
"COCCN(C)Cc1ccc(C(=O)Nc2nc3c(OC)ccc(-c4ccc(C)s4)c3s2)cc1 [Example 243, 4-{[(2-Methoxy-ethyl)-methyl-amino]-methyl}-N-[4-methoxy-7-(5-methyl-thiophen-2-yl)-benzothiazol-2-yl]-benzamide]",83 to 90 °C,–
"COc1ccc(-c2csc(N3CCN(C)CC3)n2)c2sc(NC(=O)c3ccc(F)cc3)nc12 [Example 221, 4-Fluoro-N-{4-methoxy-7-[2-(4-methyl-piperazin-1-yl)-thiazol-4-yl]-benzothiazol-2-yl}-benzamide]",138 °C (dec.),2
"COCCN(C)Cc1ccc(C(=O)Nc2nc3c(OC)ccc(-c4csc(C)n4)c3s2)cc1 [Example 242, 4-{[(2-Methoxy-ethyl)-methyl-amino]-methyl}-N-[4-methoxy-7-(2-methyl-thiazol-4-yl)-benzothiazol-2-yl]-benzamide]",140 to 145 °C,–
"COc1ccc(-c2cccs2)c2sc(NC(=O)c3ccc(CCl)cc3)nc12 [Example 231, 4-Chloromethyl-N-(4-methoxy-7-thiophen-2-yl-benzothiazol-2-yl)-benzamide]",183 to 209 °C (dec.),–
"COc1ccc(-c2csc(N)n2)c2sc(NC(=O)c3ccc(F)cc3)nc12 [Example 217, N-[7-(2-Amino-thiazol-4-yl)-4-methoxy-benzothiazol-2-yl]-4-fluoro-benzamide]",262 to 264 °C,–
"COc1ccc(-c2csc(-c3ccccn3)n2)c2sc(NC(=O)c3ccc(CCl)cc3)nc12 [Example 232, 4-Chloromethyl-N-[4-methoxy-7-(2-pyridin-2-yl-thiazol-4-yl)-benzothiazol-2-yl]-benzamide]",195 to 201 °C,–
"COc1ccc(-c2cccs2)c2sc(NC(=O)c3ccc(F)cc3)nc12 [Example 220, 4-Fluoro-N-(4-methoxy-7-thiophen-2-yl-benzothiazol-2-yl)-benzamide]",242 to 250 °C,–
"COc1ccc(-c2csc(N3CCOCC3)n2)c2sc(NC(=O)c3ccc(F)cc3)nc12 [Example 216, 4-Fluoro-N-[4-methoxy-7-(2-morpholin-4-yl-thiazol-4-yl)-benzothiazol-2-yl]-benzamide]",225 to 227 °C,–
"COc1ccc(-c2csc(NC(c3ccccc3)(c3ccccc3)c3ccccc3)n2)c2sc(NC(=O)c3ccc(CCl)cc3)nc12 [Example 229, 4-Chloromethyl-N-{4-methoxy-7-[2-(trityl-amino)-thiazol-4-yl]-benzothiazol-2-yl}-benzamide]",163 °C (dec.),–
"COCCN(C)Cc1ccc(C(=O)Nc2nc3c(OC)ccc(-c4csc(-c5ccc(C)nc5)n4)c3s2)cc1 [Example 238, 4-{[(2-Methoxy-ethyl)-methyl-amino]-methyl}-N-{4-methoxy-7-[2-(6-methyl-pyridin-3-yl)-thiazol-4-yl]-benzothiazol-2-yl}-benzamide]",–,2
"CCOC(=O)C(=O)Nc1nc2c(OC)ccc(-c3ccccc3)c2s1 [Example 47, N-(4-Methoxy-7-phenyl-benzothiazol-2-yl)-oxalamic acid ethyl ester]",138 to 142 °C,–
"COCCN(C)Cc1ccc(C(=O)Nc2nc3c(OC)ccc(-c4csc(NC(c5ccccc5)(c5ccccc5)c5ccccc5)n4)c3s2)cc1 [Example 236, 4-{[(2-Methoxy-ethyl)-methyl-amino]-methyl}-N-{4-methoxy-7-[2-(trityl-amino)-thiazol-4-yl]-benzothiazol-2-yl}-benzamide]",119 to 128 °C,–
"COc1ccc(-c2csc(-c3ccc(C)nc3)n2)c2sc(NC(=O)c3ccc(CCl)cc3)nc12 [Example 228, 4-Chloromethyl-N-{4-methoxy-7-[2-(6-methyl-pyridin-3-yl)-thiazol-4-yl]-benzothiazol-2-yl}-benzamide]",230 to 250 °C,–
"COc1ccc(-c2csc(N(C)C)n2)c2sc(NC(=O)c3ccc(F)cc3)nc12 [Example 219, N-[7-(2-Dimethylamino-thiazol-4-yl)-4-methoxy-benzothiazol-2-yl]-4-fluoro-benzamide]",218 to 220 °C,–
"COc1ccc(-c2csc(C)n2)c2sc(NC(=O)c3ccc(CCl)cc3)nc12 [Example 233, 4-Chloromethyl-N-[4-methoxy-7-(2-methyl-thiazol-4-yl)-benzothiazol-2-yl]-benzamide]",140 to 145 °C,–
"COc1ccc(-c2ccccc2)c2sc(NC(=O)c3ccc(Cn4ccnc4)cc3)nc12 [Example 100, 4-Imidazol-1-ylmethyl-N-(4-methoxy-7-phenyl-benzothiazol-2-yl)-benzamide hydrochloride salt (1:1)]",–,0.501
"COc1ccc(-c2ccccc2)c2sc(NC(=O)c3ccc(CN4CCC(O)CC4)cc3)nc12 [Example 108, 4-(4-Hydroxy-piperidin-1-ylmethyl)-N-(4-methoxy-7-phenyl-benzothiazol-2-yl)-benzamide hydrochloride salt (1:1)]",–,1.26
"COc1ccc(-c2csc(C)n2)c2sc(NC(=O)c3ccc(F)cc3)nc12 [Example 224, 4-Fluoro-N-[4-methoxy-7-(2-methyl-thiazol-4-yl)-benzothiazol-2-yl]-benzamide]",217 to 219 °C,–

# Second part, the molecule after the results:
melting point,Ki [1] [nM],Compound
150 to 170 °C,–,"COc1ccc(-c2csc(N3CCN(C)CC3)n2)c2sc(NC(=O)N3CCOCC3)nc12 [Example 261, Morpholine-4-carboxylic acid {4-methoxy-7-[2-(4-methyl-piperazin-1-yl)-thiazol-4-yl]-benzothiazol-2-yl}-amide]"
195 to 215 °C,–,"COc1ccc(-c2csc(N3CCCC3)n2)c2sc(NC(=O)c3ccnc(C)c3)nc12 [Example 255, N-[4-Methoxy-7-(2-pyrrolidin-1-yl-thiazol-4-yl)-benzothiazol-2-yl]-2-methyl-isonicotinamide]"
175 to 182 °C (dec.),–,"COc1ccc(-c2cccs2)c2sc(NC(=O)N3CCOCC3)nc12 [Example 263, Morpholine-4-carboxylic acid (4-methoxy-7-thiophen-2-yl-benzothiazol-2-yl)-amide]"
173 to 180 °C (dec.),–,"COc1ccc(-c2ccc(C)s2)c2sc(NC(=O)N3CCOCC3)nc12 [Example 264, Morpholine-4-carboxylic acid [4-methoxy-7-(5-methyl-thiophen-2-yl)-benzothiazol-2-yl]-amide]"
227 to 234 °C,–,"COc1ccc(-c2csc(N3CCCCC3)n2)c2sc(NC(=O)N3CCOCC3)nc12 [Example 262, Morpholine-4-carboxylic acid [4-methoxy-7-(2-piperidin-1-yl-thiazol-4-yl)-benzothiazol-2-yl]-amide]"
–,2,"CNCc1cc(C(=O)Nc2nc3c(OC)ccc(N4CCOCC4)c3s2)ccc1Cl [Example 280, 4-Chloro-N-(4-methoxy-7-morpholin-4-yl-benzothiazol-2-yl)-3-methylaminomethyl-benzamide]"
–,0.631,"COC(=O)N(C)Cc1ccc(C(=O)Nc2nc3c(OC)ccc(N4CCOCC4)c3s2)cc1 [Example 369, [4-(4-Methoxy-7-morpholin-4-yl-benzothiazol-2-ylcarbamoyl)-benzyl]-methyl-carbamic acid methyl ester]"
–,2.51,"CCOCCNCc1ccc(C(=O)Nc2nc3c(OC)ccc(N4CCOCC4)c3s2)cc1 [Example 290, 4-[(2-Ethoxy-ethylamino)-methyl]-N-(4-methoxy-7-morpholin-4-yl-benzothiazol-2-yl)-benzamide]"
179 to 181 °C,–,"COc1ccc(-c2csc(C)n2)c2sc(NC(=O)N3CCN(C)CC3)nc12 [Example 267, 4-Methyl-piperazine-1-carboxylic acid [4-methoxy-7-(2-methyl-thiazol-4-yl)-benzothiazol-2-yl]-amide]"
197 to 204 °C (dec.),–,"COc1ccc(-c2ccc(C)s2)c2sc(NC(=O)N3CCC(O)CC3)nc12 [Example 266, 4-Hydroxy-piperidine-1-carboxylic acid [4-methoxy-7-(5-methyl-thiophen-2-yl)-benzothiazol-2-yl]-amide]"
–,1.58,"CNCc1ccc(C(=O)Nc2nc3c(OC)ccc(N4CCOCC4)c3s2)cc1 [Example 292, N-(4-Methoxy-7-morpholin-4-yl-benzothiazol-2-yl)-4-methylaminomethyl-benzamide]"
